Reference: US6281201A, “Base-modified derivatives of 2',5'-oligoadenylate and antiviral uses thereof” (Temple University- of the Commonwealth System of Higher …, priority 1999, dated 2001)

What was measured:
[1] = test system: HIV-1; assay: Inhibition of HIV-1 replication: infected centers assay, HIV-1-induced syncytia formation; assay type: cell-based, HIV-1 strain IIIB; conditions: 300 μM (table footnote: 300 μm [sic]); PBL treated 2 h, HIV-1 IIIB MOI approx. 0.1; Sup T1 cells, read at 72 hours; mean of triplicates, variance did not exceed 5-10%
Experimental: (§1) Three studies were performed to determine the antiviral activity of the (2'-5')oligonucleotide derivatives of the present invention: (i) inhibition of HIV-1-replication, (ii) inhibition of HIV-1 reverse-transcriptase (RT) activity, and (iii) activation of recombinant human GST-RNase L. All compounds were tested at a concentration of 300 μM.
The infected centers assay as described by Henderson et al., Virology 1991, 182, 186, was used to measure the ability of the trimer core compounds of the invention to inhibit HIV-1 induced syncytia formation, an indicator of HIV-1 replication in T cells. Freshly isolated peripheral blood lymphocytes (PBL) were treated with 2-5A trimer or derivatives for 2 hours and infected with HIV-1 strain IIIB at a multiplicity of infection of approximately 0.1. The infected PBL were maintained in RPMI-1640 medium supplemented with 10% (v/v) heat-inactivated fetal calf serum at 37° C. in a humidified 5% CO2 in air atmosphere. After 48 hours, the cells were washed twice in Hank's balanced salt solution, serially diluted and seeded into multiple wells of a 96-well microtiter plate. Immediately, 2×10^5 exponentially growing Sup T1 cells were added to each well; Sup T1 cells readily form a syncytium with a cell which is productively infected with HIV-1. The wells were examined daily for the presence of syncytia, using a tissue culture microscope. The first signs of syncytia formation can be seen in 12 hours, with some complete syncytia developing by 24 hours. Final results were read at 72 hours. Each syncytium was counted as a single infected cell. The number of syncytia per seeded cell is determined and expressed as an infected center per infected cell. The number of syncytia per 10^4 cells was 121±16 for the control Sup T1 cells.
^b Inhibition of HIV-1 replication was determined by HIV-1-induced
syncytia formation (fold reduction) for each compound. The number of
syncytia/10^4 cells was 121 ± 16 for the control Sup T1 cells. The

[2] = test system: HIV-1 reverse-transcriptase; assay: Inhibition of HIV-1 reverse-transcriptase (RT) activity in culture supernatant of infected Sup T1 cells; assay type: cell-based; conditions: 300 μM, 6 h pretreatment of Sup T1 cells; supernatant 96 h post-infection; mean of duplicates, variance did not exceed 5-10%
Experimental: as §1
Sup T1 cells were treated with trimer core compound at 300 μM for 6 hours and then infected with HIV-1 at a multiplicity of infection of approximately 0.1. At 96 hours post-infection, culture supernatant was removed and HIV-1 RT activity was assayed […] as described by Henderson et al., Virology 1991, 182, 186. Briefly in this method, 25 μl of culture supernatant was added to a 50 μl cocktail containing 50 mM Tris (pH 8.0), 20 mM dithiothreitol, 10 mM MgCl2, 60 mM NaCl, 0.05% Nonidet p-40, 5 μg/ml oligodeoxythymidylic acid, 10 μg/ml polyriboadenylic acid, 10 μM deoxythymidine triphosphate and 1mCi [α^32 P]thymidine 5'-triphosphate. The mixture was incubated at 37° C. for 2 hours. Fifty microliters of the cocktail were then spotted onto diethylaminoethyl (DEAE) paper, dried, washed with 2×SSC solution (three times for 10 minutes each time) and 95% ethanol (two times for 5 minutes each time), dried and exposed to radiographic film for 18 to 24 hours at -80° C. The filters were cut and final quantitation was determined by scintillation spectrometry.
The data for the HIV-1 RT activity is shown in Table 1 as a percent of RT activity. Control values for RT activity ranged from 15,000 to 16,000 dpm [α^32 P] incorporated.
^c Percent inhibition of reverse-transcriptase (HIV-1 RT) activity.
Control values for HIV-1 RT activity ranged from 15000 to 16000 dpm
incorporated. The mean of duplicate determinations is shown; variance did

[3] = test system: recombinant human GST-RNase L; assay: Activation of recombinant human GST-RNase L (hydrolysis of poly(U)-3'-[^32 P]pCp); assay type: biochemical; conditions: 300 μM; mean of duplicates, variance did not exceed 5-10%
Experimental: as §1
Human recombinant RNase L was expressed in E. coli(DH5α) as a fusion protein of glutathione-S-transferase (GST). Activation of human recombinant GST-RNase L was measured as the percent of poly(U)[^32 P]pCp hydrolyzed in the presence of authentic 2',5'-oligoadenylate trimer core or trimer core analog of the invention as described by Sobol et al., J. Biol. Chem. 1995, 270, 5963. The data is shown in Table 1 as the mean of duplicate determinations.
^d The activation of recombinant human RNase L was measured as the
percent hydrolysis of poly(U)-3'-[^32 P]pCp in the presence of the
trimers 22-29. The mean of duplicate determinations is shown; variance did

## Adenylyl-(2'-5')-adenylyl-(2'-5')-N^6 -benzyladenosine Bis(triethylammonium) Salt [Compound 22]
[1]
  Syn: inhibition of HIV-1 replication, HIV-1-induced syncytia formation (fold reduction): > 1500 fold
[2]
  RT: percent inhibition of reverse-transcriptase (HIV-1 RT) activity: 33%
[3]
  RNase L: activation of recombinant human RNase L, percent hydrolysis of poly(U)-3'-[^32 P]pCp: 37.4%

## Adenylyl-(2'-5')-[1-(β-D-ribofuranosyl)-1H-1,2,4-triazole-3-carboxamide]yl-(2'-5')-adenosine Bis(triethylammonium) Salt [Compound 27]
[1]
  Syn: inhibition of HIV-1 replication, HIV-1-induced syncytia formation (fold reduction): 7.0 fold
[2]
  RT: percent inhibition of reverse-transcriptase (HIV-1 RT) activity: 99.7%
[3]
  RNase L: activation of recombinant human RNase L, percent hydrolysis of poly(U)-3'-[^32 P]pCp: 9.4%

## 1-(β-D-Ribofuranosyl)-1H-1,2,4-triazole-3-carboxamide]yl-(2'-5')-adenylyl-(2'-5')-adenosine Bis(triethylammonium) Salt [Compound 28]
[1]
  Syn: inhibition of HIV-1 replication, HIV-1-induced syncytia formation (fold reduction): 1.2 fold
[2]
  RT: percent inhibition of reverse-transcriptase (HIV-1 RT) activity: 99.5%
[3]
  RNase L: activation of recombinant human RNase L, percent hydrolysis of poly(U)-3'-[^32 P]pCp: 0%

## Adenylyl-(2'-5')-adenylyl-(2'-5')-1-(β-D-ribofuranosyl)-1H-1,2,4-triazole-3-carboxamide Bis(triethylammonium) Salt [Compound 26]
[1]
  Syn: inhibition of HIV-1 replication, HIV-1-induced syncytia formation (fold reduction): 1.6 fold
[2]
  RT: percent inhibition of reverse-transcriptase (HIV-1 RT) activity: 99.7%
[3]
  RNase L: activation of recombinant human RNase L, percent hydrolysis of poly(U)-3'-[^32 P]pCp: 87.7%

## N^6 -Benzyladenylyl-(2'-5')-adenylyl-(2'-5')-adenosine Bis(triethylammonium) Salt [Compound 24]
[1]
  Syn: inhibition of HIV-1 replication, HIV-1-induced syncytia formation (fold reduction): > 1500 fold
[2]
  RT: percent inhibition of reverse-transcriptase (HIV-1 RT) activity: 16.7%
[3]
  RNase L: activation of recombinant human RNase L, percent hydrolysis of poly(U)-3'-[^32 P]pCp: 0%

## N^6 -Benzyladenylyl-(2'-5')-N^6 -benzyladenylyl-(2'-5')-N^6 -benzyladenosine Bis(triethylammonium) Salt [Compound 25]
[1]
  Syn: inhibition of HIV-1 replication, HIV-1-induced syncytia formation (fold reduction): > 1500 fold
[2]
  RT: percent inhibition of reverse-transcriptase (HIV-1 RT) activity: 10.6%
[3]
  RNase L: activation of recombinant human RNase L, percent hydrolysis of poly(U)-3'-[^32 P]pCp: 13.6%

## Adenylyl-(2'-5')-N^6 -benzyladenylyl-(2'-5')-adenosine Bis(triethylammonium) Salt [Compound 23]
[1]
  Syn: inhibition of HIV-1 replication, HIV-1-induced syncytia formation (fold reduction): > 1500 fold
[2]
  RT: percent inhibition of reverse-transcriptase (HIV-1 RT) activity: 7.6%
[3]
  RNase L: activation of recombinant human RNase L, percent hydrolysis of poly(U)-3'-[^32 P]pCp: 34.8%
